Experimental data published in PMC2481421, “Gene expression response in target organ and whole blood varies as a function of target organ injury phenotype” (Genome Biology, 2008).
Values joined by “and” are separate entries in the source; they are usually repeats but may differ in a detail not shown here. Equal entries are not always repeated. “Also recorded” adds a separate entry of the source.

Tests used:
[1] = In-life observations: body weight, gross findings before and at necropsy; type: in vivo, Male Fischer 344/N rats; settings: individual animals
Description: Doses were determined with pilot experiments. […] Serum was collected for clinical chemistry.

liver = test: Liver histopathology (H&E sections of left liver lobe, severity graded) after a single dose; settings: for Primary site of livery injury: rat, single administration
Description: The animals were acclimated for 14 days and observed for absence of disease.
Doses were determined with pilot experiments. For each chemical, doses that elicited a sub-toxic ('low'), a moderately toxic ('medium') or a overtly toxic ('high') response 24 hours after treatment were selected. […] For each compound, control animal groups were treated with vehicle alone. All animals were fasted for 12-18 hours prior to exposure. Groups of four to six animals were dosed between 8:30 and 9:30 a.m.; thereafter, feed was provided ad libitum. After 6, 24 or 48 hours of treatment, animals were anesthetized by isoflurane anesthesia. Whole blood was collected via retro-orbital plexus for hematology and gene expression analysis. Serum was collected for clinical chemistry. The animals were euthanized while under anesthesia by cervical dislocation and necropsied within 4 minutes of sacrifice. The left liver lobe was promptly removed and two defined cross sections were placed in 10% neutral buffered formalin for subsequent histopathology.
The cross sections that were fixed by immersion in 10% neutral buffered formalin (see 'In-life studies' section above) were transferred to histology grade alcohol for 18-24 hours after necropsy. Tissues were then processed, embedded in paraffin, sectioned at 5 microns, and stained with hematoxylin and eosin. A pathologist completed the initial microscopic evaluation of each liver sample for a given compound. […] An independent pathology quality assessment review was performed by a second pathologist on the initial histopathological findings.

[2] = 15 mg/kg, gavage, corn oil, 6 hours
[3] = 15 mg/kg, gavage, corn oil, 24 hours, listed as 1, 4-Dichlorobenzene
[4] = 15 mg/kg, gavage, corn oil, 48 hours
[5] = 150 mg/kg, gavage, corn oil, 6 hours
[6] = 150 mg/kg, gavage, corn oil, 24 hours, listed as 1, 4-Dichlorobenzene
[7] = 150 mg/kg, gavage, corn oil, 48 hours
[8] = 1500 mg/kg, gavage, corn oil, 24 hours, listed as 1, 4-Dichlorobenzene
[9] = 1500 mg/kg, gavage, corn oil, 48 hours
[10] = 25 mg/kg, gavage, corn oil, 6 hours
[11] = 25 mg/kg, gavage, corn oil, 24 hours
[12] = 25 mg/kg, gavage, corn oil, 48 hours
[13] = 75 mg/kg, Gavage, Corn Oil, 48 hours
[14] = 75 mg/kg, gavage, corn oil, 6 hours
[15] = 75 mg/kg, gavage, corn oil, 24 hours
[16] = 250 mg/kg, Gavage, Corn Oil, 48 hours
[17] = 250 mg/kg, gavage, corn oil, 6 hours
[18] = 250 mg/kg, gavage, corn oil, 24 hours
[19] = medium dose, 6 hour, six animals

Clc1ccc(Cl)cc1 [1,4-Dichlorobenzene]
Clin/Ob Prior to Necropsy [1, 2]: Normal
Gross Findings [1, 2]: No Gross Findings
Clin/Ob Prior to Necropsy ([1]; 15 mg/kg, gavage, corn oil, 24 hours): Normal
Final Body Wt. [1, 3]: 232.30 g and 225.40 g and 254.10 g and 277.50 g
Gross Findings [1, 3]: Liver median lobe with dark area 3x5 mm; also recorded: No Gross Findings
Clin/Ob Prior to Necropsy [1, 4]: Normal
Gross Findings [1, 4]: No Gross Findings
Final Body Wt. ([1]; 15 mg/kg, gavage, corn oil, 48 hours, listed as 1, 4-Dichlorobenzene): 239.30 g and 240.50 g and 258.30 g and 262.70 g
Clin/Ob Prior to Necropsy [1, 5]: Normal
Gross Findings [1, 5]: No Gross Findings
Clin/Ob Prior to Necropsy ([1]; 150 mg/kg, gavage, corn oil, 24 hours): Normal
Final Body Wt. [1, 6]: 243.60 g and 238.40 g and 164.30 g and 262.50 g
Gross Findings [1, 6]: Liver median lobe mottled; Bladder calculi; also recorded: No Gross Findings
Clin/Ob Prior to Necropsy [1, 7]: Normal
Gross Findings [1, 7]: No Gross Findings
Final Body Wt. ([1]; 150 mg/kg, gavage, corn oil, 48 hours, listed as 1, 4-Dichlorobenzene): 234.10 g and 237.30 g and 264.20 g and 251.10 g
Clin/Ob Prior to Necropsy ([1]; 1500 mg/kg, gavage, corn oil, 6 hours): Normal
Gross Findings ([1]; 1500 mg/kg, gavage, corn oil, 6 hours, listed as 1, 4-Dichlorobenzene): Liver left and median lobes mottled; also recorded: No Gross Findings
Clin/Ob Prior to Necropsy ([1]; 1500 mg/kg, gavage, corn oil, 24 hours): Normal
Final Body Wt. [1, 8]: 242.10 g and 248.00 g and 261.40 g and 259.70 g
Gross Findings [1, 8]: No Gross Findings; also recorded: Liver median lobe mottled on dorsal side
Clin/Ob Prior to Necropsy [1, 9]: Normal
Gross Findings [1, 9]: No Gross Findings
Final Body Wt. ([1]; 1500 mg/kg, gavage, corn oil, 48 hours, listed as 1, 4-Dichlorobenzene): 237.50 g and 238.20 g and 259.90 g and 253.70 g

Brc1ccccc1 [Bromobenzene]
Clin/Ob Prior to Necropsy [1, 10]: Normal
Gross Findings [1, 10]: No Gross Findings
Clin/Ob Prior to Necropsy [1, 11]: Normal
Final Body Wt. [1, 11]: 249.50 g and 261.40 g and 229.00 g and 231.60 g
Gross Findings [1, 11]: No Gross Findings
Clin/Ob Prior to Necropsy [1, 12]: Normal
Final Body Wt. [1, 12]: 244.40 g and 235.00 g and 246.60 g and 231.60 g
Gross Findings [1, 12]: No Gross Findings
Clin/Ob Prior to Necropsy [1, 13]: Normal
Final Body Wt. [1, 13]: 236.60 g and 225.70 g and 236.40 g and 237.30 g
Gross Findings [1, 13]: No Gross Findings
Clin/Ob Prior to Necropsy [1, 14]: Normal
Gross Findings [1, 14]: No Gross Findings; also recorded: Liver left lobe mottled
Clin/Ob Prior to Necropsy [1, 15]: Normal
Final Body Wt. [1, 15]: 242.50 g and 258.00 g and 249.00 g and 228.00 g
Gross Findings [1, 15]: No Gross Findings
Clin/Ob Prior to Necropsy [1, 16]: Normal
Final Body Wt. [1, 16]: 203.70 g and 220.50 g and 212.60 g and 210.30 g
Gross Findings [1, 16]: Liver left lobe firm with mottled edges, median lobe firm with mottled edges; also recorded: Liver left lobe mild roughening of surface, median lobe mild roughening of surface
Clin/Ob Prior to Necropsy [1, 17]: Normal
Gross Findings [1, 17]: No Gross Findings; also recorded: Liver left lobe and median lobe mottled
Clin/Ob Prior to Necropsy [1, 18]: Ungroomed Appearance
Final Body Wt. [1, 18]: 214.60 g and 204.50 g and 218.70 g and 200.70 g
Gross Findings [1, 18]: Liver left lobe dark, mottled, and firm (anterior end darker), median lobe dark, mottled, and firm; also recorded: Liver left lobe mottled with dark edges, median lobe dark and mottled (left side darker)
Primary site of livery injury (liver): Centrilobular

c1cc[n+]2c(c1)-c1cccc[n+]1CC2 [Diquat Dibromide]
Clin/Ob Prior to Necropsy ([1]; 5 mg/kg, I.P., PBS, 6 hours): normal
Gross Findings ([1]; 5 mg/kg, I.P., PBS, 6 hours): No Gross Findings; also recorded: Liver: median lobe dark area ventral surface 3x5mm; also recorded: Liver: left lobe accentuated centrilobular pattern
Clin/Ob Prior to Necropsy ([1]; 5 mg/kg, I.P., PBS, 24 hours): normal
Final Body Wt. ([1]; 5 mg/kg, I.P., PBS, 24 hours): 211.10 g and 208.50 g and 245.30 g and 233.00 g and 258.10 g and 250.90 g
Gross Findings ([1]; 5 mg/kg, I.P., PBS, 24 hours): No Gross Findings; also recorded: Liver: median lobe HDN; also recorded: Liver: left lobe mottled, median lobe mottled
Clin/Ob Prior to Necropsy ([1]; 5 mg/kg, I.P., PBS, 48 hours): normal; also recorded: Piloerection
Final Body Wt. ([1]; 5 mg/kg, I.P., PBS, 48 hours): 224.20 g and 218.20 g and 231.10 g and 225.90 g and 257.30 g and 249.20 g
Gross Findings ([1]; 5 mg/kg, I.P., PBS, 48 hours): No Gross Findings; also recorded: Liver: left lobe mottled, median lobe mottled
Clin/Ob Prior to Necropsy ([1]; 10 mg/kg, I.P., PBS, 6 hours): normal
Gross Findings ([1]; 10 mg/kg, I.P., PBS, 6 hours): Liver: left lobe mottled, median lobe pale patcity area 3x5mm; also recorded: Liver: left lobe dark focus 1x1mm, median lobe mottled; also recorded: No Gross Findings
Clin/Ob Prior to Necropsy ([1]; 10 mg/kg, I.P., PBS, 24 hours): normal
Final Body Wt. ([1]; 10 mg/kg, I.P., PBS, 24 hours): 206.10 g and 210.20 g and 242.10 g and 224.30 g and 236.70 g and 244.40 g
Gross Findings ([1]; 10 mg/kg, I.P., PBS, 24 hours): No Gross Findings; also recorded: Liver: left lobe mottled, median lobe mottled; also recorded: Liver: median lobe dorsal surface mottled; also recorded: Liver: median lobe HDN
Clin/Ob Prior to Necropsy ([1]; 10 mg/kg, I.P., PBS, 48 hours): normal
Final Body Wt. ([1]; 10 mg/kg, I.P., PBS, 48 hours): 220.20 g and 230.20 g and 218.20 g and 217.30 g and 243.20 g and 249.30 g
Gross Findings ([1]; 10 mg/kg, I.P., PBS, 48 hours): No Gross Findings; also recorded: Liver: left lobe small, median lobe small; also recorded: Liver: left lobe mottled, median lobe mottled
Clin/Ob Prior to Necropsy ([1]; 20 mg/kg, I.P., PBS, 6 hours): normal
Gross Findings ([1]; 20 mg/kg, I.P., PBS, 6 hours): Liver: left lobe mottled dark edge, median lobe mottled; also recorded: No Gross Findings
Clin/Ob Prior to Necropsy ([1]; 20 mg/kg, I.P., PBS, 24 hours): normal; also recorded: Piloerection
Final Body Wt. ([1]; 20 mg/kg, I.P., PBS, 24 hours): 207.30 g and 222.70 g and 236.30 g and 245.70 g and 242.80 g and 235.30 g
Gross Findings ([1]; 20 mg/kg, I.P., PBS, 24 hours): Liver: left lobe mottled/pale, median lobe mottled/pale; also recorded: No Gross Findings; also recorded: Liver: median lobe dorsal surface mottled; also recorded: Liver: left lobe mottled/pale/slightly enlarged, median lobe mottled/pale/ slightly enlarged
Clin/Ob Prior to Necropsy ([1]; 20 mg/kg, I.P., PBS, 48 hours): normal; also recorded: Piloerection
Final Body Wt. ([1]; 20 mg/kg, I.P., PBS, 48 hours): 227.20 g and 217.30 g and 211.20 g and 231.70 g and 252.00 g and 265.20 g
Gross Findings ([1]; 20 mg/kg, I.P., PBS, 48 hours): No Gross Findings; also recorded: Liver: left lobe mottled/pale, median lobe pale; also recorded: Liver: left lobe mottled/pale, median lobe mottled/pale
Clin/Ob Prior to Necropsy ([1]; 25 mg/kg, I.P., PBS, 6 hours): normal; also recorded: Piloerection; also recorded: Comatose
Gross Findings ([1]; 25 mg/kg, I.P., PBS, 6 hours): No Gross Findings; also recorded: Liver: left lobe mottled dark, median lobe mottled dark
Clin/Ob Prior to Necropsy ([1]; 25 mg/kg, I.P., PBS, 24 hours): Piloerection; also recorded: normal; also recorded: Ungroomed Appearance
Final Body Wt. ([1]; 25 mg/kg, I.P., PBS, 24 hours): 240.50 g and 211.50 g and 223.20 g and 243.30 g and 234.60 g and 233.90 g
Gross Findings ([1]; 25 mg/kg, I.P., PBS, 24 hours): No Gross Findings; also recorded: Liver: left lobe pale, one focal tan area on dorsal side 3x3mm, tan focal area on ventral side 7x5mm; median lobe pale and mottled; also recorded: Liver: left lobe dark edge; also recorded: Liver: left lobe mottled/pale/ rough surface minimal, median lobe mottled/pale/ rough surface minimal
Clin/Ob Prior to Necropsy ([1]; 25 mg/kg, I.P., PBS, 48 hours): normal; also recorded: Ungroomed Appearance; also recorded: Piloerection
Final Body Wt. ([1]; 25 mg/kg, I.P., PBS, 48 hours): 205.20 g and 208.20 g and 226.90 g and 212.10 g and 236.10 g and 244.10 g
Gross Findings ([1]; 25 mg/kg, I.P., PBS, 48 hours): Liver: left lobe pale/small, median lobe pale/small; also recorded: Liver: left lobe pale/mottled/ rough surface slight, median lobe pale/mottled/ rough surface slight

c1cc[n+]2c(c1)-c1cccc[n+]1CC2 [Diquat]
extent of hepatocellular necrosis, amount of inflammatory cell infiltrates and/or indications of hepatocellular repair (mitosis) across animals (liver; high dose, 48 hour): variability
animals with minimal levels of hepatocellular necrosis (liver; [19]): one
animals with no apparent histopathological observations (liver; [19]): Three of the six
animals with noted levels of glycogen depletion (liver; [19]): two
Primary site of livery injury (liver): Mid-zonal to centrilobular
